# Data: ChEMBL document CHEMBL3751845, “Synthesis, molecular docking and biological evaluation of N,N-disubstituted 2-aminothiazolines as a new class of butyrylcholinesterase and carboxylesterase inhibitors” (Bioorg Med Chem, 2016)
# Target: T1, Liver carboxylesterase (Sus scrofa, UniProt Q29550)
# T1 sequence (Q29550 whole entry): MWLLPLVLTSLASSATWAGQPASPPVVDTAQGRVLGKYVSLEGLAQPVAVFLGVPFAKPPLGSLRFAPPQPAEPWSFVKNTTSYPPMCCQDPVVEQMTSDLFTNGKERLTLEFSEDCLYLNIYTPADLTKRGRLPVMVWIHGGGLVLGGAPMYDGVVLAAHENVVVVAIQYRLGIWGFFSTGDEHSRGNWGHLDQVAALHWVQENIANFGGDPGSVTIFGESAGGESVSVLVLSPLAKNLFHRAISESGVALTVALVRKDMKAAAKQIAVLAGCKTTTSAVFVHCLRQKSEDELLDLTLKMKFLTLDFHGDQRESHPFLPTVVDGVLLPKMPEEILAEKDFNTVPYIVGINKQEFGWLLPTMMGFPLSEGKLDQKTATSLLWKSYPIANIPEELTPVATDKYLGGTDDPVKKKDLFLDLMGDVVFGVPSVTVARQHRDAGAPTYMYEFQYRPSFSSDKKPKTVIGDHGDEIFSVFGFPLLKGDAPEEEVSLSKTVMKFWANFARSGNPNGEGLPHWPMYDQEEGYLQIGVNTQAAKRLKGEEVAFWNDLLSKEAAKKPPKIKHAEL
# Assay: Noncompetitive inhibition of porcine liver carboxylesterase using 4-nitrophenol acetate as substrate assessed as steady state inhibition constant preincubated for 10 mins followed by substrate addition by Lineweaver-Burk double reciprocal plot analysis
# Conditions: not given; call rule not given here
row,SMILES,Ki [µM]
1,Br.COc1ccc(CN(Cc2ccccc2)C2=NCC(CBr)S2)cc1 (stereo unspecified),7.37
2,CC(C)c1ccc(CN(Cc2ccccc2)C2=NCC(CI)S2)cc1.I (stereo unspecified),2.09
3,Br.CC(C)(C)c1ccc(CN(Cc2ccccc2)C2=NCC(CBr)S2)cc1 (stereo unspecified),0.44
4,COc1ccc(CN(Cc2ccccc2)C2=NCC(CI)S2)cc1.I (stereo unspecified),7.81
5,CC(C)(C)c1ccc(CN(Cc2ccccc2)C2=NCC(CI)S2)cc1.I (stereo unspecified),0.4
6,Br.CC(C)c1ccc(CN(Cc2ccccc2)C2=NCC(CBr)S2)cc1 (stereo unspecified),3.54

# Target: T2, Cholinesterase (Equus caballus, UniProt P81908)
# T2 sequence (P81908 whole entry): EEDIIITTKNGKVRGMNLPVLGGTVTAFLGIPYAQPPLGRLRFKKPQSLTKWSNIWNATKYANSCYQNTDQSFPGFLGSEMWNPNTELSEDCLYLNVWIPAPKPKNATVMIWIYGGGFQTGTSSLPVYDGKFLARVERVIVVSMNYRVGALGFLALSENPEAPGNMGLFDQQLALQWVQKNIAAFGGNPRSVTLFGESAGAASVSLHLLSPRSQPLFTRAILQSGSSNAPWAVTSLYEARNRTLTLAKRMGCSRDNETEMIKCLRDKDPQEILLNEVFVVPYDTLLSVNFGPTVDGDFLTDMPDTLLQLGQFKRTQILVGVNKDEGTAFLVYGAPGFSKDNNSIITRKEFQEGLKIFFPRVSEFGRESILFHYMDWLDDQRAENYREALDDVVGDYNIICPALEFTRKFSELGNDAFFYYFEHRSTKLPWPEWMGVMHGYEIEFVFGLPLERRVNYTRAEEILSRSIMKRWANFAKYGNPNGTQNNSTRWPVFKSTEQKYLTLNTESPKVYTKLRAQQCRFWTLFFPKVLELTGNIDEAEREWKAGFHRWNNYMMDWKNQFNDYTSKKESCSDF
# Assay: Inhibition of equine serum BChE using butyrylthiocholine iodide as substrate preincubated for 10 mins followed by substrate addition by Ellman's method
# Conditions: not given
row,SMILES,IC50 [µM]
1,I.ICC1CN=C(N(Cc2ccccc2)Cc2ccccc2)S1 (stereo unspecified),25
2,I.ICC1CN=C(Nc2ccc3c(c2)oc2ccccc23)S1 (stereo unspecified),> 100
3,Fc1ccc(CN(Cc2ccccc2)C2=NCC(CI)S2)cc1.I (stereo unspecified),17
4,Br.Fc1ccc(CN(Cc2ccccc2)C2=NCC(CBr)S2)cc1 (stereo unspecified),38
5,Br.COc1ccc(CN(Cc2ccccc2)C2=NCC(CBr)S2)cc1 (stereo unspecified),34
6,CC(C)(C)c1cc(CN(Cc2ccccc2)C2=NCC(CI)S2)cc(C(C)(C)C)c1O.I (stereo unspecified),> 100
7,CC(C)c1ccc(CN(Cc2ccccc2)C2=NCC(CI)S2)cc1.I (stereo unspecified),4.14
8,Br.Clc1ccc(CN(Cc2cccnc2)C2=NCC(CBr)S2)cc1 (stereo unspecified),30
9,CC(c1ccccc1)N(Cc1ccccc1)C1=NCC(CI)S1.I (stereo unspecified),> 100
10,COc1ccc(CN(Cc2ccccc2)C2=NCC(CI)S2)cc1OC (stereo unspecified),20
11,Br.Clc1ccccc1CN(Cc1cccnc1)C1=NCC(CBr)S1 (stereo unspecified),25
12,Br.CC(c1ccccc1)N(Cc1ccccc1)C1=NCC(CBr)S1 (stereo unspecified),14
13,Br.CC(C)(C)c1ccc(CN(Cc2ccccc2)C2=NCC(CBr)S2)cc1 (stereo unspecified),2.34
14,Clc1ccc(CN(Cc2cccnc2)C2=NCC(CI)S2)cc1.I (stereo unspecified),2.47
15,Br.BrCC1CN=C(N(Cc2ccccc2)Cc2ccccc2)S1 (stereo unspecified),26
16,I.ICC1CN=C(N(Cc2ccccc2)Cc2ccco2)S1 (stereo unspecified),42
17,Clc1ccccc1CN(Cc1ccccc1)C1=NCC(CI)S1.I (stereo unspecified),44
18,Clc1ccccc1CN(Cc1cccnc1)C1=NCC(CI)S1.I (stereo unspecified),21
19,COc1ccc(CN(Cc2ccccc2)C2=NCC(CI)S2)cc1.I (stereo unspecified),25
20,CC(C)(C)c1ccc(CN(Cc2ccccc2)C2=NCC(CI)S2)cc1.I (stereo unspecified),0.77
21,Br.CC(C)c1ccc(CN(Cc2ccccc2)C2=NCC(CBr)S2)cc1 (stereo unspecified),11

# Target: T2, Cholinesterase
# Assay: Competitive inhibition of equine serum BChE using butyrylthiocholine iodide as substrate assessed as steady state inhibition constant preincubated for 10 mins followed by substrate addition by Lineweaver-Burk double reciprocal plot analysis
# Conditions: not given
row,SMILES,Ki [µM]
1,CC(C)c1ccc(CN(Cc2ccccc2)C2=NCC(CI)S2)cc1.I (stereo unspecified),1.34
2,Br.Clc1ccc(CN(Cc2cccnc2)C2=NCC(CBr)S2)cc1 (stereo unspecified),9.51
3,Br.CC(C)(C)c1ccc(CN(Cc2ccccc2)C2=NCC(CBr)S2)cc1 (stereo unspecified),0.62
4,Clc1ccc(CN(Cc2cccnc2)C2=NCC(CI)S2)cc1.I (stereo unspecified),0.67
5,CC(C)(C)c1ccc(CN(Cc2ccccc2)C2=NCC(CI)S2)cc1.I (stereo unspecified),0.27

# Target: T3, Acetylcholinesterase (Homo sapiens, UniProt P22303)
# T3 sequence (P22303 whole entry): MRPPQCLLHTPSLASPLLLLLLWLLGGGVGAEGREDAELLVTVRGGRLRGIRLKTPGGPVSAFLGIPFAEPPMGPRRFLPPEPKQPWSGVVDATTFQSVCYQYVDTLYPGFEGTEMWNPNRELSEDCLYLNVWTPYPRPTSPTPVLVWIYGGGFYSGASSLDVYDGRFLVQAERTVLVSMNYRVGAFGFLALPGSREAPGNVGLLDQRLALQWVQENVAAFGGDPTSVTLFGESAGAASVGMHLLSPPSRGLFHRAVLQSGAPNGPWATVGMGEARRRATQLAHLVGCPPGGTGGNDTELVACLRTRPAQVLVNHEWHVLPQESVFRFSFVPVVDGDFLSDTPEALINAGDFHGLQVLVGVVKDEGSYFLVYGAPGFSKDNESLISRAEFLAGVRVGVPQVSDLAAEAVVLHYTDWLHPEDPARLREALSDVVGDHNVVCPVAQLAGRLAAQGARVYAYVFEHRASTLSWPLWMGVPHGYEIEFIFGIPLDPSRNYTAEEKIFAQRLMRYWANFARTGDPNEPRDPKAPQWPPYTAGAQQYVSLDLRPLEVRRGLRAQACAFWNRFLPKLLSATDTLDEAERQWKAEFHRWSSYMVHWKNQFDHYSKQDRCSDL
# Conditions: not given
row,SMILES,IC50
1,I.ICC1CN=C(N(Cc2ccccc2)Cc2ccccc2)S1 (stereo unspecified),Not Active
2,I.ICC1CN=C(Nc2ccc3c(c2)oc2ccccc23)S1 (stereo unspecified),Not Active
3,Fc1ccc(CN(Cc2ccccc2)C2=NCC(CI)S2)cc1.I (stereo unspecified),Not Active
4,Br.Fc1ccc(CN(Cc2ccccc2)C2=NCC(CBr)S2)cc1 (stereo unspecified),Not Active
5,Br.COc1ccc(CN(Cc2ccccc2)C2=NCC(CBr)S2)cc1 (stereo unspecified),Not Active
6,CC(C)(C)c1cc(CN(Cc2ccccc2)C2=NCC(CI)S2)cc(C(C)(C)C)c1O.I (stereo unspecified),Not Active
7,CC(C)c1ccc(CN(Cc2ccccc2)C2=NCC(CI)S2)cc1.I (stereo unspecified),Not Active
8,Br.Clc1ccc(CN(Cc2cccnc2)C2=NCC(CBr)S2)cc1 (stereo unspecified),Not Active
9,CC(c1ccccc1)N(Cc1ccccc1)C1=NCC(CI)S1.I (stereo unspecified),Not Active
10,Br.Clc1ccccc1CN(Cc1cccnc1)C1=NCC(CBr)S1 (stereo unspecified),Not Active
11,Br.CC(c1ccccc1)N(Cc1ccccc1)C1=NCC(CBr)S1 (stereo unspecified),Not Active
12,Br.CC(C)(C)c1ccc(CN(Cc2ccccc2)C2=NCC(CBr)S2)cc1 (stereo unspecified),Not Active
13,Br.BrCC1CN=C(N(Cc2ccccc2)Cc2ccccc2)S1 (stereo unspecified),Not Active
14,I.ICC1CN=C(N(Cc2ccccc2)Cc2ccco2)S1 (stereo unspecified),Not Active
15,Clc1ccccc1CN(Cc1ccccc1)C1=NCC(CI)S1.I (stereo unspecified),Not Active
16,Clc1ccccc1CN(Cc1cccnc1)C1=NCC(CI)S1.I (stereo unspecified),Not Active
17,COc1ccc(CN(Cc2ccccc2)C2=NCC(CI)S2)cc1.I (stereo unspecified),Not Active
18,CC(C)(C)c1ccc(CN(Cc2ccccc2)C2=NCC(CI)S2)cc1.I (stereo unspecified),Not Active
19,Br.CC(C)c1ccc(CN(Cc2ccccc2)C2=NCC(CBr)S2)cc1 (stereo unspecified),Not Active

# Target: T2, Cholinesterase
# Assay: Noncompetitive inhibition of equine serum BChE using butyrylthiocholine iodide as substrate assessed as steady state inhibition constant preincubated for 10 mins followed by substrate addition by Lineweaver-Burk double reciprocal plot analysis
# Conditions: not given
row,SMILES,Ki [µM]
1,CC(C)c1ccc(CN(Cc2ccccc2)C2=NCC(CI)S2)cc1.I (stereo unspecified),7.56
2,Br.Clc1ccc(CN(Cc2cccnc2)C2=NCC(CBr)S2)cc1 (stereo unspecified),19.9
3,Clc1ccc(CN(Cc2cccnc2)C2=NCC(CI)S2)cc1.I (stereo unspecified),3.6
4,CC(C)(C)c1ccc(CN(Cc2ccccc2)C2=NCC(CI)S2)cc1.I (stereo unspecified),1.2

# Target: T1, Liver carboxylesterase
# Assay: Inhibition of porcine liver carboxylesterase using 4-nitrophenol acetate as substrate by spectrophotometric analysis
# Conditions: not given
row,SMILES,IC50
1,CC(C)(C)c1cc(CN(Cc2ccccc2)C2=NCC(CI)S2)cc(C(C)(C)C)c1O.I (stereo unspecified),Not Active

# Same assay, conditions: read-out: IC50
row,SMILES,IC50 [µM]
1,I.ICC1CN=C(N(Cc2ccccc2)Cc2ccccc2)S1 (stereo unspecified),46
2,I.ICC1CN=C(Nc2ccc3c(c2)oc2ccccc23)S1 (stereo unspecified),> 100
3,Fc1ccc(CN(Cc2ccccc2)C2=NCC(CI)S2)cc1.I (stereo unspecified),80
4,Br.Fc1ccc(CN(Cc2ccccc2)C2=NCC(CBr)S2)cc1 (stereo unspecified),40
5,Br.COc1ccc(CN(Cc2ccccc2)C2=NCC(CBr)S2)cc1 (stereo unspecified),4.9
6,CC(C)c1ccc(CN(Cc2ccccc2)C2=NCC(CI)S2)cc1.I (stereo unspecified),2.13
7,Br.Clc1ccc(CN(Cc2cccnc2)C2=NCC(CBr)S2)cc1 (stereo unspecified),> 100
8,CC(c1ccccc1)N(Cc1ccccc1)C1=NCC(CI)S1.I (stereo unspecified),19
9,COc1ccc(CN(Cc2ccccc2)C2=NCC(CI)S2)cc1OC (stereo unspecified),> 100
10,Br.Clc1ccccc1CN(Cc1cccnc1)C1=NCC(CBr)S1 (stereo unspecified),> 100
11,Br.CC(c1ccccc1)N(Cc1ccccc1)C1=NCC(CBr)S1 (stereo unspecified),> 100
12,Br.CC(C)(C)c1ccc(CN(Cc2ccccc2)C2=NCC(CBr)S2)cc1 (stereo unspecified),0.32
13,Clc1ccc(CN(Cc2cccnc2)C2=NCC(CI)S2)cc1.I (stereo unspecified),18
14,Br.BrCC1CN=C(N(Cc2ccccc2)Cc2ccccc2)S1 (stereo unspecified),32
15,I.ICC1CN=C(N(Cc2ccccc2)Cc2ccco2)S1 (stereo unspecified),131
16,Clc1ccccc1CN(Cc1ccccc1)C1=NCC(CI)S1.I (stereo unspecified),117
17,Clc1ccccc1CN(Cc1cccnc1)C1=NCC(CI)S1.I (stereo unspecified),> 100
18,COc1ccc(CN(Cc2ccccc2)C2=NCC(CI)S2)cc1.I (stereo unspecified),4.66
19,CC(C)(C)c1ccc(CN(Cc2ccccc2)C2=NCC(CI)S2)cc1.I (stereo unspecified),0.22
20,Br.CC(C)c1ccc(CN(Cc2ccccc2)C2=NCC(CBr)S2)cc1 (stereo unspecified),2.55

# Target: T3, Acetylcholinesterase
# Conditions: not given
# Remark: another data set of the same source
row,SMILES,IC50 [µM]
1,COc1ccc(CN(Cc2ccccc2)C2=NCC(CI)S2)cc1OC (stereo unspecified),> 100
2,Clc1ccc(CN(Cc2cccnc2)C2=NCC(CI)S2)cc1.I (stereo unspecified),> 100

# Test system: not listed separately
# Assay: Cytotoxicity against human fetal MSC assessed as reduction in cell viability at <30 uM after 72 hrs by MTT assay
# Conditions: not given
row,SMILES,Activity
1,Br.COc1ccc(CN(Cc2ccccc2)C2=NCC(CBr)S2)cc1 (stereo unspecified),Non-toxic
2,CC(C)c1ccc(CN(Cc2ccccc2)C2=NCC(CI)S2)cc1.I (stereo unspecified),Non-toxic
3,Br.Clc1ccc(CN(Cc2cccnc2)C2=NCC(CBr)S2)cc1 (stereo unspecified),Non-toxic
4,Br.CC(C)(C)c1ccc(CN(Cc2ccccc2)C2=NCC(CBr)S2)cc1 (stereo unspecified),Non-toxic
5,Clc1ccc(CN(Cc2cccnc2)C2=NCC(CI)S2)cc1.I (stereo unspecified),Non-toxic
6,COc1ccc(CN(Cc2ccccc2)C2=NCC(CI)S2)cc1.I (stereo unspecified),Non-toxic
7,CC(C)(C)c1ccc(CN(Cc2ccccc2)C2=NCC(CI)S2)cc1.I (stereo unspecified),Non-toxic
8,Br.CC(C)c1ccc(CN(Cc2ccccc2)C2=NCC(CBr)S2)cc1 (stereo unspecified),Non-toxic
